Like-named read-outs stand apart in the source and are kept apart here.
Columns and labels:
Bacillus subtilis spores [1] = experiment: Spore suspension test, killing of Bacillus subtilis spores; assay type: cell-based; settings: for Log Reduction/mL (20° C., 4 hrs): [NaHCO3], 0 mM; for Log Reduction/mL (3 hr, 20° C., pH = 8): Table 4B
[2] = system: Clostridium sporogenes spores; settings: cited from earlier work
[3] = pH range of 3 to 9, single component, per the '999 patent; cited from earlier work
[4] = Storage stability of phthalaldehyde solution (loss by Cannizzaro reaction); assay type: physicochemical; settings: stored about 11 weeks
Description: Overall, the Cannizzaro reaction generally leads to loss of phthalaldehyde and a decrease in the germicidal efficacy of the solution. While a pH of from 6 to 10, or 7.5 to 9 generally enhances the efficacy of the phthalaldehyde-carbonate solution, the higher or alkaline pH also generally promotes the Cannizzaro reaction. […] However, about 14% of the phthalaldehyde may be lost if the same solution is stored for about 11 weeks at a pH of 9, at room temperature. Even more of the phthalaldehyde may be converted if the storage period is longer, if the temperature is higher, or if the pH is higher than 9.

Bacillus subtilis spores [5] = settings: cited from earlier work
[6] = cited from earlier work
Mycobacterium bovis BCG = settings: at least 0.25% by weight phthalaldehyde as the sole active ingredient, 20° C.; cited from earlier work
[7] = Air in headspace
Protocol: (§1) Experiments were conducted to determine the pressures of several bicarbonate solutions with different bicarbonate concentration, starting pH, and at different temperatures, with air initially in the headspace of the container. Several bicarbonate solutions of different concentration were prepared. The pH of the solutions were adjusted by sparging the solutions with carbon dioxide to achieve a starting pH. About 1030 mL of each solution was introduced into a different 1145 mL glass bottle that was equipped with a thermometer and a pressure sensor. The headspace of each bottle was flushed with air for about one minute and then the bottle was sealed with a stopper. […] The solutions were stirred at about 20° C. until all pressures stabilized. The pressures were recorded. The solutions were then heated in a water bath to 40° C., and then to 55° C., and the pressures were recorded at each of these temperatures. The experiments were conducted at sea level.

[8] = CO2 in headspace
Protocol: as §1
Experiments were conducted to determine the pressures of sealed containers including bicarbonate solutions when the air initially present in the headspace of the containers was replaced with carbon dioxide. […] The experiments were conducted at sea level.

[9] = Protocol: A 100 mL round-bottom flask having a capacity of about 135 mL was equipped with a septum, a stirrer bar, and a pressure sensor. […] About 65 mL of a bicarbonate solution having a particular concentration and pH was injected into the flask. Excess pressure was released through a needle on the septum. Carbon dioxide was sparged through the solution to obtain the listed pH and then the solution was sealed in the container with a stopper. The solution was stirred at a temperature of about 20° C. until a stable pressure was achieved. The procedure was repeated for other air partial pressures and bicarbonate solutions. The experiments were conducted at sea level.
[10] = Table 1, 20° C., 8 hr exposure, no pH control
[11] = Table 2, 20° C., 8 hr exposure, no pH control
[12] = Table 3, 20° C., 8 hr exposure, no pH control
[13] = Table 3, 20° C., 24 hr exposure, no pH control
[14] = 0.25% phthalaldehyde as the sole active ingredient, 20° C.
[15] = Table 2, 20° C., 4 hr exposure, no pH control
[16] = Table 2, 20° C., 24 hr exposure, no pH control

Compound: O=Cc1ccccc1C=O [0.3% OPA, 1,2-benzenedicarboxaldehyde]
- Log Reduction/mL (20° C.) 4 hr (Bacillus subtilis spores [1]; Table 1, 20° C., 4 hr exposure, no pH control): 0.5
- Log Reduction/mL (20° C.) 8 hr (Bacillus subtilis spores [1]; [10]): 0.6
- Log Reduction/mL (20° C.) 24 hr (Bacillus subtilis spores [1]; Table 1, 20° C., 24 hr exposure, no pH control): 2.9
- Log Reduction/mL (20° C.) 8 hr (Bacillus subtilis spores [1]; [11]): ~0.6
- Log Reduction/mL (20° C.) 8 hr (Bacillus subtilis spores [1]; [12]): ~0.6
- Log Reduction/mL (20° C.) 24 hr (Bacillus subtilis spores [1]; [13]): ~2.9
- Log Reduction/mL (20° C.) 4 hr (Bacillus subtilis spores [1]; Table 4A, pH 7.0, 20° C., 4 hr): 0.5
- Log Reduction/mL (20° C.) 8 hr (Bacillus subtilis spores [1]; Table 4A, pH 7.0, 20° C., 8 hr): 0.6
- Log Reduction/mL (20° C.) 24 hr (Bacillus subtilis spores [1]; Table 4A, pH 7.0, 20° C., 24 hr): 2.9
- Log Reductions/mL (20° C.) 2 hr (Bacillus subtilis spores [1]; Table 7, 20° C., 2 hr): 0.4
- Log Reductions/mL (20° C.) 4 hr (Bacillus subtilis spores [1]; Table 7, 20° C., 4 hr): 0.5
- Log Reductions/mL (20° C.) 6 hr (Bacillus subtilis spores [1]; Table 7, 20° C., 6 hr): 0.7
- Log Reductions/mL (20° C.) 8 hr (Bacillus subtilis spores [1]; Table 7, 20° C., 8 hr): 0.6
- Log Reductions/mL (20° C.) 24 hr (Bacillus subtilis spores [1]; Table 7, 20° C., 24 hr): 2.9
- Log Reductions/mL (20° C.) 4 hr (Bacillus subtilis spores [1]; Table 10, 20° C., 4 hr): 1.5
- Log Reductions/mL (20° C.) 24 hr (Bacillus subtilis spores [1]; Table 10, 20° C., 24 hr): 2.9
- Log Reduction/mL (20° C., 4 hrs) (Bacillus subtilis spores [1]; Table 13, 20° C.): 0.5
- Log Reduction/mL (20° C., 4 hrs) (Bacillus subtilis spores [1]; Table 14, 20° C.): 0.5
- Log Reduction/mL (20° C., 4 hrs) (Bacillus subtilis spores [1]; Table 15, 20° C.): 0.5
- time for sporicidal activity [2, 14]: 24 h
- time in which sterilization is achieved ([2]; 1.0% phthalaldehyde): 10 h
- stability of compositions containing phthalaldehyde [3]: excellent stability
- loss of phthalaldehyde on storage ([4]; pH of 7 or lower, room temperature to about 40° C.): without a noticeable loss
- phthalaldehyde lost on storage ([4]; pH of 9, room temperature): about 14%
- time for sporicidal activity (Bacillus subtilis spores [5]; [14]): 24 h
- time in which sterilization is achieved (Bacillus subtilis spores [5]; 1.0% phthalaldehyde): 10 h
- solubility in water [6]: about 5 % by weight
- time to kill all Mycobacterium bovis BCG in contact with the composition (Mycobacterium bovis BCG): ≤ 10 min

Compound: [F-].[Li+] [100 mM LiF, lithium fluoride]
- Log Reduction/mL (20° C.) 24 hr (Bacillus subtilis spores [1]; [13]): 0.0

Compound: [F-].[K+] [1000 mM KF, potassium fluoride]
- Log Reduction/mL (20° C.) 8 hr (Bacillus subtilis spores [1]; [12]): 0.0
- Log Reduction/mL (20° C.) 24 hr (Bacillus subtilis spores [1]; [13]): 0.1
- Log Reduction/mL (3 hr, 20° C., pH = 8) (Bacillus subtilis spores [1]; 20° C.): 0

Compound: [I-].[K+] [1000 mM KI, potassium iodide]
- Log Reduction/mL (3 hr, 20° C., pH = 8) (Bacillus subtilis spores [1]; 20° C.): 0

Compound: [Br-].[Na+] [1000 mM NaBr, sodium bromide]
- Log Reduction/mL (20° C.) 4 hr (Bacillus subtilis spores [1]; [15]): 0.0
- Log Reduction/mL (20° C.) 24 hr (Bacillus subtilis spores [1]; [16]): 0.1

Compound: [Cl-].[Na+] [1000 mM NaCl, sodium chloride]
- Log Reduction/mL (20° C.) 24 hr (Bacillus subtilis spores [1]; [16]): 0.2

Compound: [F-].[Na+] [1000 mM NaF, sodium fluoride]
- Log Reduction/mL (20° C.) 8 hr (Bacillus subtilis spores [1]; [10]): 0.0
- Log Reduction/mL (20° C.) 8 hr (Bacillus subtilis spores [1]; [11]): 0.0
- Log Reduction/mL (20° C.) 24 hr (Bacillus subtilis spores [1]; [16]): 0.0

Compound: [I-].[Na+] [1000 mM Nal, sodium iodide]
- Log Reduction/mL (20° C.) 4 hr (Bacillus subtilis spores [1]; [15]): 0.0
- Log Reduction/mL (20° C.) 8 hr (Bacillus subtilis spores [1]; [11]): 0.0
- Log Reduction/mL (20° C.) 24 hr (Bacillus subtilis spores [1]; [16]): 0.1

Compound: O=C([O-])O.[Na+] [NaHCO3, sodium bicarbonate]
- Pressure Above Atmospheric Pressure (mmHg) 20° C. ([7]; pH 7.3, [NaHCO3] 0.02M): 72 mmHg
- Pressure Above Atmospheric Pressure (mmHg) 40° C. ([7]; pH 7.3, [NaHCO3] 0.02M): 208 mmHg
- Pressure Above Atmospheric Pressure (mmHg) 55° C. ([7]; pH 7.3, [NaHCO3] 0.02M): 378 mmHg
- Pressure Above Atmospheric Pressure (mmHg) 20° C. ([7]; pH 7.4, [NaHCO3] 0.3M): 250 mmHg
- Pressure Above Atmospheric Pressure (mmHg) 40° C. ([7]; pH 7.4, [NaHCO3] 0.3M): 570 mmHg
- Pressure Above Atmospheric Pressure (mmHg) 55° C. ([7]; pH 7.4, [NaHCO3] 0.3M): 862 mmHg
- Pressure Above Atmospheric Pressure (mmHg) 20° C. ([7]; pH 7.8, [NaHCO3] 0.3M): 134 mmHg
- Pressure Above Atmospheric Pressure (mmHg) 40° C. ([7]; pH 7.8, [NaHCO3] 0.3M): 322 mmHg
- Pressure Above Atmospheric Pressure (mmHg) 55° C. ([7]; pH 7.8, [NaHCO3] 0.3M): 542 mmHg
- Pressure Below (−) or Above (+) Atmospheric Pressure (mmHg) 20° C. ([8]; pH 7.2, [NaHCO3] 0.3M): −158 mmHg
- Pressure Below (−) or Above (+) Atmospheric Pressure (mmHg) 40° C. ([8]; pH 7.2, [NaHCO3] 0.3M): 202 mmHg
- Pressure Below (−) or Above (+) Atmospheric Pressure (mmHg) 55° C. ([8]; pH 7.2, [NaHCO3] 0.3M): 532 mmHg
- Pressure Below (−) or Above (+) Atmospheric Pressure (mmHg) 20° C. ([8]; pH 7.3, [NaHCO3] 0.02M): −508 mmHg
- Pressure Below (−) or Above (+) Atmospheric Pressure (mmHg) 40° C. ([8]; pH 7.3, [NaHCO3] 0.02M): −348 mmHg
- Pressure Below (−) or Above (+) Atmospheric Pressure (mmHg) 55° C. ([8]; pH 7.3, [NaHCO3] 0.02M): −202 mmHg
- Pressure Below (−) or Above (+) Atmospheric Pressure (mmHg) 20° C. ([8]; pH 7.4, [NaHCO3] 0.3M): −290 mmHg
- Pressure Below (−) or Above (+) Atmospheric Pressure (mmHg) 40° C. ([8]; pH 7.4, [NaHCO3] 0.3M): 0 mmHg
- Pressure Below (−) or Above (+) Atmospheric Pressure (mmHg) 55° C. ([8]; pH 7.4, [NaHCO3] 0.3M): 274 mmHg
- Pressure Below (−) or Above (+) Atmospheric Pressure (mmHg) 20° C. ([8]; pH 7.8, [NaHCO3] 0.3M): −440 mmHg
- Pressure Below (−) or Above (+) Atmospheric Pressure (mmHg) 40° C. ([8]; pH 7.8, [NaHCO3] 0.3M): −246 mmHg
- Pressure Below (−) or Above (+) Atmospheric Pressure (mmHg) 55° C. ([8]; pH 7.8, [NaHCO3] 0.3M): −50 mmHg
- Final Pressure at Equilibrium (mmHg) ([9]; initial air 440 / CO2 320 mmHg, NaHCO3 0.3 mole/L, pH 7.4, about 20° C.): 758 mmHg
- Final Pressure at Equilibrium (mmHg) ([9]; initial air 674 / CO2 86 mmHg, NaHCO3 0.3 mole/L, pH 8.0, about 20° C.): 760 mmHg
- Final Pressure at Equilibrium (mmHg) ([9]; initial air 726 / CO2 34 mmHg, NaHCO3 0.05 mole/L, pH 8.0, about 20° C.): 756 mmHg
- Final Pressure at Equilibrium (mmHg) ([9]; initial air 740 / CO2 20 mmHg, NaHCO3 0.05 mole/L, pH 7.4, about 20° C.): 758 mmHg
